Results on four molecules are retold here after publication PMC10265003 (Royal Society Open Science, 2023).

Read-outs that look alike come from different tables or passages of the source. Positions of bridges follow the written chain, without caps; N, C: chain ends. Non-standard residues stand in square brackets, D forms with d. Residues, ends and D or L forms follow the SMILES beside them. Chains are numbered I, II in the order given. No end group written: not given here. 4Abz = Nc1ccc(C(=O)O)cc1; 2Abz = Nc1ccccc1C(=O)O; Ahx = NCCCCCC(=O)O

Data set [1] in a line: RP-HPLC retention time as measure of hydrophobicity. The data set is classed as physicochemical. The conditions noted are these: Chromolith RP-18e, water/ACN with 0.05% TFA, 5-50% B from 1 to 9 min, 2 ml min^−1, 210 nm, used as measure of hydrophobicity. Here is the method:
The peptides were analysed using a Hitachi Primaide-DAD 1110 chromatograph and a Chromolith RP-18e High Resolution column (100 × 4.1 i.d. mm) (Merck, Darmstadt, Germany). Water containing 0.05% TFA was used as solvent A, and ACN containing 0.05% TFA was used as solvent B. The elution programme used was […] at a flow rate of 2 ml min^−1 and a wavelength of 210 nm. Ten microlitres of each peptide solution was injected at an approximate concentration of […].

Data set [2] has as its system MCF-7 breast cancer line. Format: cell-based, human. The conditions noted are these: 2 h. Here is the method:
The MTT assay was performed in accordance with previous reports. Briefly, the cells were seeded with a complete medium in 96-well plates at a rate of 10 000 cells and 100 µl per well, and adhesion to the plates was allowed for 24 h. Later, the complete medium was removed, and an incomplete medium was added for synchronization for another 24 h. The cells were then incubated at 37°C for 2 h with 100 µl of peptide at the evaluated concentrations (200, 100, 50, 25, 12.5 and 6.25 µg ml^−1). Next, the peptide was removed from the well and 100 µl of incomplete medium with 10% MTT was added and incubated for 4 h. The medium was replaced with 100 µl of isopropanol, and after 30 min of incubation at 37°C, the absorbance was measured at 575 nm. As a negative control, an incomplete culture medium with 10% MTT was used, and as a positive control, cells without MTT treatment were used. The IC50 value was determined from figure 1 (peptide concentration versus per cent cell viability) using a nonlinear regression model with variable slope and GraphPad Prism 9 statistical analysis software.

Data set [3] deals with human breast cancer lines MDA-MB-468 and MDA-MB-231. The conditions noted are these: 4 mg via intra-tumoural route, cited from earlier work. Here is the method:
Mice treated with peptide ^26[F] recovered completely after 24 h, and the survival rate was 100% after one week of observation. […] Peptide ^26[F] was inoculated in female mic ...

Data set [4] has as its system MDA-MB-231 breast cancer cell line. The conditions noted are these: cytotoxic effect; cited from earlier work. From the text: (§1) Solid-phase peptide synthesis has allowed chemical and structural modifications to be made to ACPs in order to enhance their activity and increase their resistance to proteolytic degradation.
For data set [5], the system named is MDA-MB-468 breast cancer cell line. The conditions noted are these: cytotoxic effect; cited from earlier work.
Excerpt: as §1

Data set [6] has as its system MCF-7 breast cancer line. Particulars: cytotoxic effect against MCF-7 cells, not tested in this paper; cited from earlier work. The source says:
Dimeric peptides derived from peptide ^26[F]: (RRWQWRFKKLG)2-K-Ahx were synthesized and characterized. The analogues with the highest synthetic viability in terms of purity and yield were ^26[1-Nal] and ^26[hF].

As to `CC(C)C[C@H](NC(=O)[C@H](CCCCN)NC(=O)[C@H](CCCCN)NC(=O)c1ccccc1NC(=O)[C@H](Cc1c[nH]c2ccccc12)NC(=O)[C@H](CCC(N)=O)NC(=O)[C@H](Cc1c[nH]c2ccccc12)NC(=O)[C@H](CCCNC(=N)N)NC(=O)[C@@H](N)CCCNC(=N)N)C(=O)NCC(=O)NCCCC[C@H](NC(=O)CNC(=O)[C@H](CC(C)C)NC(=O)[C@H](CCCCN)NC(=O)[C@H](CCCCN)NC(=O)c1ccccc1NC(=O)[C@H](Cc1c[nH]c2ccccc12)NC(=O)[C@H](CCC(N)=O)NC(=O)[C@H](Cc1c[nH]c2ccccc12)NC(=O)[C@H](CCCNC(=N)N)NC(=O)[C@@H](N)CCCNC(=N)N)C(=O)NCCCCCC(N)=O` [^26[2-Abz], (RRWQWR-2-Abz-KKLG)2-K-Ahx] (I: H-RRWQW[2Abz]KKLGK[Ahx]-NH2 / II: H-RRWQW[2Abz]KKLG; amide I:11-II:C; N-terminus assumed), in data set [1], the “tR” value is reported as 5.9 min.
One may read the IC50 as the concentration needed to halve the response being measured. Turning to `CC(C)C[C@H](NC(=O)[C@H](CCCCN)NC(=O)[C@H](CCCCN)NC(=O)c1ccc(NC(=O)[C@H](Cc2c[nH]c3ccccc23)NC(=O)[C@H](CCC(N)=O)NC(=O)[C@H](Cc2c[nH]c3ccccc23)NC(=O)[C@H](CCCNC(=N)N)NC(=O)[C@@H](N)CCCNC(=N)N)cc1)C(=O)NCC(=O)NCCCC[C@H](NC(=O)CNC(=O)[C@H](CC(C)C)NC(=O)[C@H](CCCCN)NC(=O)[C@H](CCCCN)NC(=O)c1ccc(NC(=O)[C@H](Cc2c[nH]c3ccccc23)NC(=O)[C@H](CCC(N)=O)NC(=O)[C@H](Cc2c[nH]c3ccccc23)NC(=O)[C@H](CCCNC(=N)N)NC(=O)[C@@H](N)CCCNC(=N)N)cc1)C(=O)NCCCCCC(N)=O` [^26[4-Abz], (RRWQWR-4-Abz-KKLG)2-K-Ahx] (I: H-RRWQW[4Abz]KKLGK[Ahx]-NH2 / II: H-RRWQW[4Abz]KKLG; amide I:11-II:C; N-terminus assumed), 49 µM corresponded to half-maximal inhibition with MCF-7 breast cancer line [2] (IC50). The “tR” value in data set [1] was 5.9 min.
With “Bovine lactoferricin (FKCRRWQWRMKKLGAPSITCVRRAF; ends and bridges not checked; cysteine pairing not given here; UniProt P24627 36-60, looked up) [LfcinB, 25-amino acid ACP generated by gastric pepsin digestion of bovine lactoferrin]”, in data set [3] (NOD-SCI-gamma mice), the safety on administration entry is reported as “safe”. Besides, in data set [3] (xenografts of MDA-MB-468 and MDA-MB-231 in NOD-SCI-gamma mice), the anti-tumoural effect result is reported as “had anti-tumoural effect”.
In the case of “(^20RRWQWRMKKLG^30)2-K-Ahx [LfcinB (20–30)2]”, the IC50 was 14 µM in data set [4], 5 µM in data set [5] and at least 60 µM in the data set with MCF-7 breast cancer line [6].
